Test results reported in the supplement of paper PMC11061612.

Assays:
[1] = test system: COR-L95 (Small Cell Lung Carcinoma); assay: Bliss excess, mean over the matrix (fraction); higher = more synergy
In short: (§1)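 Cell lines grown in DMEM/F12 or RPMI with 10% FBS were plated in 1536-well plates and held 24 hours at 37°C, 5% CO2 before 72 hours of exposure to two-drug dose matrices, with DMSO typically at 0.2%. CellTiter-Glo 2.0 luminescence gave viability, which was converted to inhibition. Vehicle wells were set to 0 and blank wells to 1. Combination Emax is the second-highest inhibition in the matrix, and Bliss excess is the observed combination effect minus the expected EA + EB − EA·EB, where EA and EB are the single-agent effects.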

[2] = test system: DB (B-Cell Non-Hodgkin's Lymphoma); assay: as above
In short: as §1

[3] = test system: ES7 (Ewing's Sarcoma); assay: as above
In short: as §1

[4] = test system: J82 (Bladder Carcinoma); assay: as above
In short: as §1

[5] = test system: KARPAS-1106P (B-Cell Non-Hodgkin's Lymphoma); assay: as above
In short: as §1

[6] = test system: NCI-H1694 (Small Cell Lung Carcinoma); assay: as above
In short: as §1

[7] = test system: NCI-H2369 (Mesothelioma); assay: as above
In short: as §1

[8] = test system: OCI-AML2 (Acute Myeloid Leukemia); assay: as above
In short: as §1

[9] = test system: SW1783 (Low Grade Glioma); assay: as above
In short: as §1

[10] = test system: SW1990 (Pancreatic Carcinoma); assay: as above
In short: as §1

[11] = test system: TGBC24TKB (Biliary Tract Carcinoma); assay: as above
In short: as §1

[12] = test system: EM-2 (Chronic Myelogenous Leukemia); assay: combination Emax (second highest fraction inhibited in the dose matrix, 72 h); higher = more inhibition; extreme values may be limits of the assay
In short: as §1

[13] = test system: ES7 (Ewing's Sarcoma); assay: as above
In short: as §1

[14] = test system: KARPAS-1106P (B-Cell Non-Hodgkin's Lymphoma); assay: as above
In short: as §1

[15] = test system: KARPAS-620 (Plasma Cell Myeloma); assay: as above
In short: as §1

[16] = test system: NCI-H1694 (Small Cell Lung Carcinoma); assay: as above
In short: as §1

[17] = test system: RH-1 (Ewing's Sarcoma); assay: as above
In short: as §1

[18] = test system: SUIT-2 (Pancreatic Carcinoma); assay: as above
In short: as §1

[19] = test system: TE-5 (Esophageal Squamous Cell Carcinoma); assay: as above
In short: as §1

[20] = test system: U-266 (Plasma Cell Myeloma); assay: as above
In short: as §1
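Throughout, for Bliss excess, mean over the matrix: after 72 h of two-drug dosing.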

Row | Structure (SMILES) | Bliss excess [1] | Bliss excess [2] | Bliss excess [3] | Bliss excess [4] | Bliss excess [5] | Bliss excess [6] | Bliss excess [7] | Bliss excess [8] | Bliss excess [9] | Bliss excess [10] | Bliss excess [11] | combination Emax [12] | combination Emax [13] | combination Emax [14] | combination Emax [15] | combination Emax [16] | combination Emax [17] | combination Emax [18] | combination Emax [19] | combination Emax [20]
1 | C[C@@H]1COCCN1c1cc(C2([S@](C)(=N)=O)CC2)nc(-c2ccnc3[nH]ccc23)n1 [AZD6738] + O=C(c1cc(Cc2n[nH]c(=O)c3ccccc23)ccc1F)N1CCN(C(=O)C2CC2)CC1 [Olaparib] (first compound max 10 µM, 7x7, partner max 10 µM) | -0.0399 | -0.0359 | 0.0469 | 0.031 | -0.0236 | 0.0089 | -0.0344 | 0.0013 | 0.0376 | -0.0071 | -0.0113 | 0.984 | 0.962 | 0.672 | 0.544 | 0.734 | 0.965 | 0.676 | 0.442 | 0.584
2 | CC1(C)CCC(CN2CCN(c3ccc(C(=O)NS(=O)(=O)c4ccc(NCC5CCOCC5)c([N+](=O)[O-])c4)c(Oc4cnc5[nH]ccc5c4)c3)CC2)=C(c2ccc(Cl)cc2)C1 [Venetoclax] + COc1cc(Nc2ncc3c(n2)-c2ccc(Cl)cc2C(c2c(F)cccc2OC)=NC3)ccc1C(=O)O [Alisertib] (first compound max 1 µM, 7x7, partner max 10 µM) | 0.134 | 0.124 | 0.0686 | -0.0336 | 0.103 | 0.256 | -0.0739 | 0.0826 | -0.0178 | -0.074 | 0.0487 | 0.903 | 0.917 | 0.713 | 1 | 0.667 | 1 | 0.106 | 0.137 | 0.751
3 | CS(=O)(=O)CCNCc1ccc(-c2ccc3ncnc(Nc4ccc(OCc5cccc(F)c5)c(Cl)c4)c3c2)o1 [Lapatinib] + C[C@@H](Oc1cc(-c2cnn(C3CCNCC3)c2)cnc1N)c1c(Cl)ccc(F)c1Cl [Crizotinib] (first compound max 10 µM, 7x7, partner max 10 µM) | -0.0529 | -0.148 | -0.0214 | -0.0317 | -0.0483 | 0.025 | -0.0253 | -0.0813 | -0.0306 | -0.0042 | -0.0058 | 1 | 0.927 | 0.938 | 0.873 | 0.291 | 0.939 | 0.657 | 0.502 | 0.495
4 | Cc1cc2ncnn2cc1Nc1ncc2c(n1)n(C1CCOCC1)c(=O)n2C [AZD7648] + CN(C)CCCOc1ccc(-c2ccc3ncc4c(c3c2)n(C2CCOCC2)c(=O)n4C)cn1 [AZD0156] (first compound max 10 µM, 7x7, partner max 1 µM) | -0.0218 | -0.0402 | 0.0271 | -0.0131 | 0.0083 | 0.0062 | 0.0327 | -0.022 | -0.0078 | -0.0182 | 0.009 | 0.349 | 0.433 | 0.423 | 0.468 | 0.165 | 0.127 | 0.109 | 0.41 | 0.226
5 | CC1(C)CCC(CN2CCN(c3ccc(C(=O)NS(=O)(=O)c4ccc(NCC5CCOCC5)c([N+](=O)[O-])c4)c(Oc4cnc5[nH]ccc5c4)c3)CC2)=C(c2ccc(Cl)cc2)C1 [Venetoclax] + C[C@@H]1COCCN1C2=NC(=NC(=C2)C3(CC3)[S@](=N)(=O)C)C4=C5C=CNC5=NC=C4 [AZD6738] (first compound max 1 µM, 7x7, partner max 10 µM) | -0.0056 | 0.009 | 0.0245 | 0.0106 | -0.0213 | 0.0443 | -0.0247 | 0.0166 | -0.0555 | -0.0556 | -0.0188 | 0.943 | 0.941 | 0.688 | 0.996 | 0.822 | 0.959 | 0.471 | 0.593 | 0.614
6 | CN(CCO)CC[C@H](CSc1ccccc1)Nc1ccc(S(=O)(=O)NC(=O)c2ccc(N3CCC([C@@H](O)c4ccccc4-c4ccc(Cl)cc4)CC3)cc2)cc1S(=O)(=O)C(F)(F)F [AZD4320] + C[C@@H](Nc1cc(F)cc(F)c1)c1cc(C(=O)N(C)C)cc2c(=O)cc(N3CCOCC3)oc12 [AZD8186] (first compound max 1 µM, 7x7, partner max 3 µM) | 0.0256 | -0.0096 | 0.136 | -0.0061 | 0.0758 | 0.0454 | -0.0251 | 0.0556 | -0.0348 | 0.0048 | 0.0011 | 0.959 | 0.991 | 0.951 | 1 | 0.978 | 0.885 | 0.245 | 0.636 | 0.481
7 | CC1(C)CCC(CN2CCN(c3ccc(C(=O)NS(=O)(=O)c4ccc(NCC5CCOCC5)c([N+](=O)[O-])c4)c(Oc4cnc5[nH]ccc5c4)c3)CC2)=C(c2ccc(Cl)cc2)C1 [Venetoclax] + C[C@@H](Nc1cc(F)cc(F)c1)c1cc(C(=O)N(C)C)cc2c(=O)cc(N3CCOCC3)oc12 [AZD8186] (first compound max 1 µM, 7x7, partner max 3 µM) | 0.095 | -0.0332 | 0.135 | -0.0213 | 0.0046 | 0.0808 | -0.0299 | -0.0033 | -0.0258 | -0.0255 | -0.0202 | 0.256 | 0.904 | 0.796 | 1 | 0.376 | 0.0877 | 0.0137 | 0.375 | 0.471
8 | Cn1cnc2c(F)c(Nc3ccc(Br)cc3Cl)c(C(=O)NOCCO)cc21 [Selumetinib] + CCN(CCO)CCCOc1ccc2c(Nc3cc(CC(=O)Nc4cccc(F)c4)[nH]n3)ncnc2c1 [AZD2811] (first compound max 10 µM, 7x7, partner max 1 µM) | -0.0075 | -0.125 | -0.0524 | -0.0611 | 0.0245 | 0.0136 | -0.0517 | 0.0545 | -0.0559 | -0.0292 | 0.003 | 0.88 | 0.792 | 0.297 | 0.87 | 0.385 | 0.935 | 0.349 | 0.186 | 0.594
9 | CCN(CCO)CCCOc1ccc2c(Nc3cc(CC(=O)Nc4cccc(F)c4)[nH]n3)ncnc2c1 [AZD2811] + O=C(c1cc(Cc2n[nH]c(=O)c3ccccc23)ccc1F)N1CCN(C(=O)C2CC2)CC1 [Olaparib] (first compound max 1 µM, 7x7, partner max 10 µM) | -0.0526 | -0.0544 | -0.0184 | -0.0207 | -0.0229 | 0.0406 | 0.0055 | -0.0351 | -0.0423 | -0.0302 | -0.0102 | 0.822 | 0.918 | 0.535 | 0.4 | 0.276 | 0.947 | 0.0755 | 0.184 | 0.279
10 | CN(CCO)CC[C@H](CSc1ccccc1)Nc1ccc(S(=O)(=O)NC(=O)c2ccc(N3CCC([C@@H](O)c4ccccc4-c4ccc(Cl)cc4)CC3)cc2)cc1S(=O)(=O)C(F)(F)F [AZD4320] + CN(C)CCCOc1ccc(-c2ccc3ncc4c(c3c2)n(C2CCOCC2)c(=O)n4C)cn1 [AZD0156] (first compound max 1 µM, 7x7, partner max 1 µM) | 0.0046 | 0.0373 | 0.0177 | -0.0464 | -0.0055 | 0.0791 | -0.036 | -0.0296 | -0.0298 | -0.0411 | 0.0025 | 0.968 | 0.747 | 0.146 | 1 | 0.718 | 0.359 | 0.0928 | 0.43 | 0.506
11 | COc1cc2c(cc1OCCCCCOc1cc3c(cc1OC)C(=O)N1C=C(C)C[C@H]1C=N3)N=C[C@@H]1CC(C)=CN1C2=O [SG3199] + O=C(c1cc(Cc2n[nH]c(=O)c3ccccc23)ccc1F)N1CCN(C(=O)C2CC2)CC1 [Olaparib] (first compound max 0.001 µM, 7x7, partner max 10 µM) | -0.0224 | -0.0272 | 0.0011 | 0.0123 | -0.0202 | -0.0222 | -0.035 | -0.0546 | -0.0446 | -0.049 | -0.0087 | 0.292 | 0.832 | 0.467 | 0.139 | 0.112 | 0.189 | 0.187 | 0.0521 | 0.179
12 | Cn1cnc2c(F)c(Nc3ccc(Br)cc3Cl)c(C(=O)NOCCO)cc21 [Selumetinib] + CC(C)n1c(=O)n(C)c2cnc3cc(F)c(-c4ccc(OCCCN5CCCCC5)nc4)cc3c21 [AZD1390] (first compound max 10 µM, 7x7, partner max 0.3 µM) | -0.016 | -0.0488 | -0.0301 | 0.0142 | -0.0376 | -0.0085 | -0.0442 | -0.0079 | -0.048 | -0.0434 | -0.109 | 0.545 | 0.14 | 0.0708 | 0.472 | 0.206 | 0.048 | 0.284 | 0.137 | 0.532
13 | NC1(C(=O)N[C@@H](CCO)c2ccc(Cl)cc2)CCN(c2ncnc3[nH]ccc23)CC1 [Capivasertib] + CCN(CCO)CCCOc1ccc2c(Nc3cc(CC(=O)Nc4cccc(F)c4)[nH]n3)ncnc2c1 [AZD2811] (first compound max 10 µM, 7x7, partner max 1 µM) | -0.0075 | 0.0338 | -0.0354 | -0.0018 | 0.0426 | 0.0503 | -0.0446 | 0.0134 | -0.0236 | -0.033 | 0.0111 | 0.877 | 0.86 | 0.502 | 0.798 | 0.508 | 0.981 | 0.177 | 0.339 | 0.312
